Our source for the IC50 values is US20180148418A1, “AMIDO-SUBSTITUTED CYCLOHEXANE DERIVATIVES” (Bayer Pharma Aktiengesellschaft, priority 2015, published 2018).

Assay [1] concerns wildtype Wnt signaling cascade. Nature of the assay: HEK293 TOP assay (Super TopFlash luciferase reporter, Wnt-3a stimulated). The class given is cell-based. Conditions: Homo sapiens, HEK293, 16 h, HEK293 TOP reporter cells, Wnt3a at EC50, 16 hours. In a few lines: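 HEK293 cells stably carrying Super TopFlash (TOP) run in parallel with FOP cells, 10000/well plated 24 h ahead, stimulated with recombinant human Wnt-3a. Compounds tested 50 μM to 15 nM in 3.16-fold steps in CAFTY buffer pH 7.4 with 2 mM Ca^2+ and 0.01% BSA; luciferase read-out.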
In general terms: Reporter assays use an easily measured gene product as a stand-in for the process of interest.

Assay [2] relates to HEK293 cells cotransfected with the FOP control vector. Nature of the assay: HEK293 FOP assay (control reporter with non-functional TCF elements). The format is cell-based. Particulars: Homo sapiens, 16 hours. The method in brief:
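Stable HEK293 line carrying FOP control reporter (randomized non-functional TCF sites, with pcDNA3), Geneticin-selected, plated 24 h before assay. Stimulated with recombinant human Wnt-3a (2500-5 ng/ml) and compounds 50 μM–15 nM (3.16-fold steps) in CAFTY buffer pH 7.4 with 2 mM Ca2+, 0.01% BSA, run parallel to TOP line.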

Another assay has as its target T1, TNKS2 (Homo sapiens, UniProt Q9H2K2).
T1 construct: purchased BPS Bioscience, San Diego, USA 80572 (TNKS2 Histone Ribosylation Assay Kit)
T1 sequence (Q9H2K2 1-1166): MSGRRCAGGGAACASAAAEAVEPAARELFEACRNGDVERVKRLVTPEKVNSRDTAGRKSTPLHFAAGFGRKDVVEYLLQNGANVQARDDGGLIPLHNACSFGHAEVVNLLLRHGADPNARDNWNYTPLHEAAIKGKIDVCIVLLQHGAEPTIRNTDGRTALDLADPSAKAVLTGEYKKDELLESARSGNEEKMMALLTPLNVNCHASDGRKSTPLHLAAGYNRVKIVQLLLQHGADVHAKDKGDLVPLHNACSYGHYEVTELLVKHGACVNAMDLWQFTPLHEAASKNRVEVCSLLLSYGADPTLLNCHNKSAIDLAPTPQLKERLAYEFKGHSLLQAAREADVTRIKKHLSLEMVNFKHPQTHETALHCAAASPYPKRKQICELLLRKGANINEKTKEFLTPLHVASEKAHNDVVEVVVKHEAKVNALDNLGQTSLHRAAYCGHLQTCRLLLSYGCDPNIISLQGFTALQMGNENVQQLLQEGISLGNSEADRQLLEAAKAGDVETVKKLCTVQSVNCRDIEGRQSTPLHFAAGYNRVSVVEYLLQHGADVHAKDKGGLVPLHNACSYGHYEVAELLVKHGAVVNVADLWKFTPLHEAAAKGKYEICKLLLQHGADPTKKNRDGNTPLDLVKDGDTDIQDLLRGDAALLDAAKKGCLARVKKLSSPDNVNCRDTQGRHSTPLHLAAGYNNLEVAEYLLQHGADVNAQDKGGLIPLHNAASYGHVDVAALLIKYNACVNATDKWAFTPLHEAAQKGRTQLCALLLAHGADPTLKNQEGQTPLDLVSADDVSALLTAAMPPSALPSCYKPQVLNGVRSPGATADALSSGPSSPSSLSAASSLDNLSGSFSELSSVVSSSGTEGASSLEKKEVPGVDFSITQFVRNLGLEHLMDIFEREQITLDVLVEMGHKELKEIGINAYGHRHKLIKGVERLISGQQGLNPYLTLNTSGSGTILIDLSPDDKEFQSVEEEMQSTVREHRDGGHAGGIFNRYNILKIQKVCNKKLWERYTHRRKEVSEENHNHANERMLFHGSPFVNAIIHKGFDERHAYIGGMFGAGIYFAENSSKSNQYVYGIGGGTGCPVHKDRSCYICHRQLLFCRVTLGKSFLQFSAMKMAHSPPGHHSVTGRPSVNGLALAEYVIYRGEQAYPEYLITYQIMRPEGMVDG
Put plainly: TNKS2 Assay B (auto-parsylation, [3H]-NAD+ SPA). Conditions: 6 nM TNKS2, auto-parsylation, over night at room temperature. The class given is biochemical.

Structures are written as SMILES. A value given as a limit tells only on which side of the number the result lay.

On to `O=C(N[C@H]1CC[C@@]2(CCN(c3ccccc3Cl)C2=O)CC1)c1cnc2cccnn12` [Example 271, N-[(trans)-2-(2-chlorophenyl)-1-oxo-2-azaspiro[4.5]dec-8-yl]imidazo[1,2-b]pyridazine-3-carboxamide], for which the IC50 (in general, the concentration that inhibits the measured activity by half) in assay [1] was 3.6 nM; in assay [2] it was ≥ 50000 nM; against TNKS2, 5.9 nM.
On the same counts, the results for `CNC(=O)c1nc[nH]c1C(=O)N[C@H]1CC[C@@]2(CCN(c3cccc(Cl)c3)C2=O)CC1` [Example 276, N^5-[(trans)-2-(3-chlorophenyl)-1-oxo-2-azaspiro[4.5]dec-8-yl]-N^4-methyl-1H-imidazole-4,5-dicarboxamide] are 27 nM, 32000 nM and 89 nM.
In the case of `CCNC(=O)c1nc[nH]c1C(=O)N[C@H]1CC[C@@]2(CCN(c3cccc(Cl)c3)C2=O)CC1` [Example 277, N^5-[(trans)-2-(3-chlorophenyl)-1-oxo-2-azaspiro[4.5]dec-8-yl]-N^4-ethyl-1H-imidazole-4,5-dicarboxamide], the IC50 came to 40 nM in assay [1], 31000 nM in assay [2] and 150 nM on TNKS2.
Take `CC(C)NC(=O)c1nc[nH]c1C(=O)N[C@H]1CC[C@@]2(CCN(c3cccc(Cl)c3)C2=O)CC1` [Example 278, N^5-[(trans)-2-(3-chlorophenyl)-1-oxo-2-azaspiro[4.5]dec-8-yl]-N^4-(propan-2-yl)-1H-imidazole-4,5-dicarboxamide]: the IC50 was 90 nM in assay [1], ≥ 50000 nM in assay [2] and 170 nM at TNKS2.
For the compound `O=C(NC1CC1)c1nc[nH]c1C(=O)N[C@H]1CC[C@@]2(CCN(c3cccc(Cl)c3)C2=O)CC1` [Example 279, N^5-[(trans)-2-(3-chlorophenyl)-1-oxo-2-azaspiro[4.5]dec-8-yl]-N^4-cyclopropyl-1H-imidazole-4,5-dicarboxamide], the IC50 in assay [1] is 64 nM; in assay [2], ≥ 50000 nM; against TNKS2, 170 nM.
Turning to `O=C(N[C@H]1CC[C@@]2(CCN(c3cccc(Cl)c3)C2=O)CC1)c1[nH]cnc1C(=O)N1CC(F)C1` [Example 280, N-[(trans)-2-(3-chlorophenyl)-1-oxo-2-azaspiro[4.5]dec-8-yl]-4-[(3-fluoroazetidin-1-yl)carbonyl]-1H-imidazole-5-carboxamide], the values for the IC50 (in assay [1]; in assay [2]; against TNKS2) were 23 nM, ≥ 50000 nM and 94 nM, respectively.
Consider `O=C(NCC(F)(F)F)c1nc[nH]c1C(=O)N[C@H]1CC[C@@]2(CCN(c3cccc(Cl)c3)C2=O)CC1` [Example 281, N^5-[(trans)-2-(3-chlorophenyl)-1-oxo-2-azaspiro[4.5]dec-8-yl]-N^4-(2,2,2-trifluoroethyl)-1H-imidazole-4,5-dicarboxamide], for which the figures for the IC50 (in assay [1]; in assay [2]; on TNKS2) were 43 nM, ≥ 50000 nM and 280 nM, respectively.
On the same counts, the results for `COCCNC(=O)c1nc[nH]c1C(=O)N[C@H]1CC[C@@]2(CCN(c3cccc(Cl)c3)C2=O)CC1` [Example 282, N^5-[(trans)-2-(3-chlorophenyl)-1-oxo-2-azaspiro[4.5]dec-8-yl]-N^4-(2-methoxyethyl)-1H-imidazole-4,5-dicarboxamide] are 41 nM, 8000 nM and 160 nM.
